{
  "source": "patent US20190151290A1",
  "about": "(Hoffmann-La Roche Inc., priority 2015, published 2019)",
  "key": {"[1]": {"test_system": "patients with type 2 diabetes mellitus and acute coronary syndrome", "assay_type": "in vivo", "conditions": "aleglitazar 150 μg daily vs placebo, overall population"}, "[2]": {"test_system": "patients who had a linear GFR decline (diabetic nephropathy patients)", "conditions": "due to hemodynamic response"}},
  "data": [
    {"smiles": "CO[C@@H](Cc1ccc(OCCc2nc(-c3ccccc3)oc2C)c2ccsc12)C(=O)O", "note": "[aleglitazar, (S)-2-methoxy-3-{4-[2-(5-methyl-2-phenyl-oxazol-4-yl)-ethoxy]-benzo[b]thiophen-7-yl}-propionic acid]", "values": [
      {"measurement": "hemoglobin A1C", "setting": "[1]", "value": "reduced"},
      {"measurement": "incidence of cardiovascular death, myocardial infarction or stroke", "setting": "[1]", "value": "did not significantly decrease"},
      {"measurement": "serum HDL-C level", "setting": "[1]", "value": "improved"},
      {"measurement": "serum triglyceride level", "setting": "[1]", "value": "improved"},
      {"measurement": "initial drop of GFR", "setting": "[2]", "value": "reversible after stopping the drug"}
    ]}
  ]
}
